The record followed here is ChEMBL document CHEMBL6114971, “Design, synthesis and biological evaluation of benzo[b]thiophene analogues as novel ferroptosis inhibitor that inhibit fibrosarcoma cell proliferation” (Bioorg Med Chem, 2025).

Structures are written as SMILES. Activity calls are given as the source filed them. No cut-off for these calls is given here.

Series [1] concerns A549. Description: Antiproliferative activity against human A549 cells measured after 72 hrs by MTT assay. Format: functional, cell-based. The note with it: A549, 72 h.
In series [2] the test system is 4T1. Description: Antiproliferative activity against mouse 4T1 cells measured after 72 hrs by MTT assay. Format: functional, cell-based. The note with it: 4T1, 72 h.
The subject of series [3] is HT-1080. Description: Antiproliferative activity against human HT-1080 cells measured after 72 hrs by MTT assay. The note with it: HT-1080, 72 h. Format: functional, cell-based.
Series [4] deals with MGC-803. Description: Antiproliferative activity against human MGC-803 cells measured after 72 hrs by MTT assay. The note with it: MGC-803, 72 h. It counts as functional, cell-based.
Series [5] has as its system HT-1080. Description: Antiproliferative activity against human HT-1080 cells measured after 72 hrs in presence of ferroptosis inhibitor Fer-1 by MTT assay. The note with it: HT-1080, 72 h. It counts as functional, cell-based.
Series [6] can be described thus: Selectivity ratio of IC50 for antiproliferative activity against human HT-1080 cells in presence of ferroptosis inhibitor Fer-1 to IC50 for antiproliferative activity against human HT-1080 cells. Format: functional.
Series [7] can be described thus: Cytotoxicity against human GES1 cells measured after 72 hrs by MTT assay. It counts as toxicity, cell-based.
A short description of series [8]: Cytotoxicity against HUVEC measured after 72 hrs by MTT assay. The note with it: human. It counts as toxicity, cell-based.
The nature of series [9]: Selectivity index, ratio of IC50 for human GES1 cells to IC50 for human HT-1080. It counts as toxicity. The note with it: GES1 cells versus HT-1080 cells, read-out: Ratio IC50.
A short description of series [10]: Selectivity index, ratio of IC50 for HUVEC to IC50 for human HT-1080. It counts as toxicity. The note with it: HUVEC versus HT-1080 cells, read-out: Ratio IC50.
For series [11], the target named is T1, Phospholipid hydroperoxide glutathione peroxidase GPX4 (Homo sapiens) (UniProt P36969).
T1 sequence (whole entry): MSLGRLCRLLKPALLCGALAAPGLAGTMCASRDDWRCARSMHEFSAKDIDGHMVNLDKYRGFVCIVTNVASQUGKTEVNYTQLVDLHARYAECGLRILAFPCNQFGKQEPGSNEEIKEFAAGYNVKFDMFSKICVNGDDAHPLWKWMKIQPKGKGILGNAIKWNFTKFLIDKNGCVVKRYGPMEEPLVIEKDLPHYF
Description: Inhibition of GPX4 activity in human HT-1080 cells assessed as down regulation of GPX4 level at 2 uM measured after 24 hrs by Western blotting analysis. It counts as cell-based.

The target of series [12] is T1, Phospholipid hydroperoxide glutathione peroxidase GPX4 (Homo sapiens). Briefly: Inhibition of GPX4 activity in human HT-1080 cells assessed as down regulation of GPX4 level measured after 24 hrs by Western blotting analysis. It counts as cell-based. The note with it: dose 0.25-4 µM.
Series [13] deals with HT-1080. Description: Reduction in GPX4 mRNA level in human HT-1080 cells measured after 24 hrs by qRT-PCR analysis. Format: functional, cell-based. The note with it: dose 0.5-4 µM.
Series [14] has as its system HT-1080. Description: Induction of ferroptosis in human HT-1080 cells assessed as increase in intracellular Fe2+ level measured after 24 hrs. It counts as functional, cell-based. The note with it: dose 0.5-4 µM.
Series [15] relates to HT-1080. Description: Induction of ROS generation in human HT-1080 cells assessed as intracellular ROS level at 0.5 uM measured after 24 hrs by DCFH-DA probe based flow cytometry (reference value: 33%). It counts as functional.
The subject of series [16] is HT-1080. Description: Induction of ROS generation in human HT-1080 cells assessed as intracellular ROS level at 1 uM measured after 24 hrs by DCFH-DA probe based flow cytometry (reference value: 33%). It counts as functional.
Series [17] concerns HT-1080. Description: Induction of ROS generation in human HT-1080 cells assessed as intracellular ROS level at 2 uM measured after 24 hrs by DCFH-DA probe based flow cytometry (reference value: 33%). It counts as functional.
Series [18] deals with HT-1080. Description: Induction of ROS generation in human HT-1080 cells assessed as intracellular ROS level at 2 uM measured after 24 hrs in presence of ferroptosis inhibitor Fer-1 by DCFH-DA probe based flow cytometry (reference value: 33%). Format: functional.
Series [19] relates to HT-1080. Description: Induction of ROS generation in human HT-1080 cells assessed as increase in intracellular ROS level measured after 24 hrs by DCFH-DA probe based flow cytometry. Format: functional, cell-based. The note with it: dose 0.5-2 µM.
Series [20] concerns HT-1080. Description: Induction of ferroptosis in human HT-1080 cells assessed as reduction in GSH level measured after 24 hrs. It counts as functional, cell-based. The note with it: dose 0.5-4 µM.
Series [21] relates to HT-1080. Briefly: Induction of ferroptosis in human HT-1080 cells assessed as increase in MDA level measured after 24 hrs. Format: functional, cell-based. The note with it: dose 0.5-4 µM.
Series [22] relates to HT-1080. Briefly: Cell cycle arrest in human HT-1080 cells assessed as accumulation of cells at G1-phase at 0.5 uM measured after 24 hrs by propidium iodide staining based flow cytometry (reference value: 51.3%). Format: functional.
Series [23] relates to HT-1080. Briefly: Cell cycle arrest in human HT-1080 cells assessed as accumulation of cells at S-phase at 0.5 uM measured after 24 hrs by propidium iodide staining based flow cytometry (reference value: 21.1%). Format: functional.
The subject of series [24] is HT-1080. Description: Cell cycle arrest in human HT-1080 cells assessed as accumulation of cells at G2/M-phase at 0.5 uM measured after 24 hrs by propidium iodide staining based flow cytometry (reference value: 27%). Format: functional.
The test system of series [25] is HT-1080. Description: Cell cycle arrest in human HT-1080 cells assessed as accumulation of cells at G1-phase at 1 uM measured after 24 hrs by propidium iodide staining based flow cytometry (reference value: 51.3%). It counts as functional.
Series [26] deals with HT-1080. Description: Cell cycle arrest in human HT-1080 cells assessed as accumulation of cells at S-phase at 1 uM measured after 24 hrs by propidium iodide staining based flow cytometry (reference value: 21.1%). Format: functional.
Series [27] deals with HT-1080. Description: Cell cycle arrest in human HT-1080 cells assessed as accumulation of cells at G2/M-phase at 1 uM measured after 24 hrs by propidium iodide staining based flow cytometry (reference value: 27%). Format: functional.
In series [28] the test system is HT-1080. Description: Cell cycle arrest in human HT-1080 cells assessed as accumulation of cells at G1-phase at 2 uM measured after 24 hrs by propidium iodide staining based flow cytometry (reference value: 51.3%). It counts as functional.
The subject of series [29] is HT-1080. Briefly: Cell cycle arrest in human HT-1080 cells assessed as accumulation of cells at S-phase at 2 uM measured after 24 hrs by propidium iodide staining based flow cytometry (reference value: 21.1%). Format: functional.
For series [30], the system named is HT-1080. Briefly: Cell cycle arrest in human HT-1080 cells assessed as accumulation of cells at G2/M-phase at 2 uM measured after 24 hrs by propidium iodide staining based flow cytometry (reference value: 27%). Format: functional.
Series [31] has as its system HT-1080. Briefly: Reduction in GPX4 mRNA level in human HT-1080 cells at 2 uM measured after 24 hrs by qRT-PCR analysis. It counts as functional, cell-based.

On to `COc1cc(N(Cc2csc3ccccc23)C(=O)CCl)cc(OC)c1OC`, for which the IC50 is 17.2 µM in [1]; 16.1 µM in series [2]; 0.94 µM in series [3]; 4.48 µM in series [4]; 3.03 µM in series [5]. Further, the “Ratio IC50” value in series [6] turned out to be 3.21. For the same compound, the half-maximal inhibitory concentration (IC50) at 72 h worked out at 103 µM in [7] and 26.1 µM in series [8]. Besides, the selectivity ratio in [9] stood at 109; in series [10], 27.7. In addition, the results for the inhibition entry in series [11] and in series [12] were “Active; Significant Down Regulation Observed” and “Dose-dependent-effect”, respectively. In addition, the Activity result in [13] was “Dose-dependent-effect”; in series [14], “Dose-dependent-effect”; in [15], 33%; in series [16] it was 64.2%; in series [17], 88.5%; in series [18], 31.2%. For the same compound, the Activity entry is “Dose-dependent-effect” in series [19]; “Dose-dependent-effect” in series [20]; “Dose-dependent-effect” in series [21]; 48% in series [22]; 28.5% in series [23]; 23.1% in [24]. Further, the Activity in [25] is listed as 38.8%; in series [26] it was 37%; in series [27] it was 23.8%; in [28], 35.5%; in series [29], 40.7%; in [30], 23.9%.
Regarding `COC(=O)c1ccc([C@H]2c3[nH]c4ccccc4c3C[C@H](C(=O)OC)N2C(=O)CCl)cc1`, the 50% inhibitory concentration (IC50) is greater than 20 µM in [1], 18.4 µM in series [2], 12.2 µM in [4] and 2.28 µM in series [5]. The “Ratio IC50” value in series [6] was 1.88. Moreover, the IC50 at 72 h in series [7] turned out to be 62.3 µM; in series [8], 32.1 µM. Further, the selectivity ratio in series [9] is 51.5; in series [10], 26.6. Also, the inhibition result in [11] is “Active”. Also, the result in series [31] was Active. The Activity in series [17] is given as 87.6%.
